Measurements reported in patent US20030060469A1, “Use of substances that act as cascade inhibitors of the raf/mek/erk signal cascade, for producing a medicament to treat dna and rna viruses” (priority 2000, published 2003).
Read-outs that look alike come from different tables or passages of the source.

Legend:
[1] = mouse model; oral administration; up to a cumulating dose of 6 g/kg body weight; cited from earlier work
[2] = tested on: influenza A virus stem WSN-HK
[3] = tested on: Borna disease virus (BDV)
[4] = tested on: MDCK cells; details: concentrations corresponding to the infection test (up to 50 μM), macroscopic examination and propidium iodide staining

SMILES	signs of toxicity [1]	reduction of the number of newly generated infectious virus particles in the cell culture medium [2]	virus foci (spreading of BDV infection) ([3]; administration of 6 μM, compared to untreated infectious reference cells)	virus foci (spreading of BDV infection) ([3]; administration of 12.5 μM)	virus foci (spreading of BDV infection) ([3]; one-time administration of 25 μM, cultivation time of 7 days)	cytotoxic effect on the cells [4]
O=C(NOCC1CC1)c1ccc(F)c(F)c1Nc1ccc(I)cc1Cl [PD184352, 2-(2-chloro-4-iodo-phenylamino)-N-cyclopropyl-methoxy-3,4-difluoro-benzamide]	without showing any significant signs of toxicity					
N#CC(=C(N)Sc1ccccc1N)C(C#N)=C(N)Sc1ccccc1N [U0126, 1,4-diamino-2,3-dicyano-1,4-bis[2-aminophenylthio]butadiene]		approx. 80%	no difference of the virus foci	the effect is not clear anymore	no virus foci are visible	neither solvent nor inhibitor have a significant cytotoxic effect on the cells
